Data reported in patent publication US11708367B2, “Compounds for the treatment of kinase-dependent disorders” (Exelixis, Inc., priority 2018, dated 2023).

Tests used:
Format in all cases: cell-based
AXL = AXL (Homo sapiens (Human), UniProt P30530); assay: AXL autophosphorylation ELISA in A-172 cells; conditions: cellular, Gas6-stimulated, phospho-AXL ELISA
Experimental: A-172 glioblastoma cells (ATCC #CRL-1620) were seeded at 2.5×10^5 cells/well onto 24-well plates (Greiner #662165), in DMEM (Thermo Fisher #11995-040) containing 10% FBS (Thermo Fisher #26140-079), 1% MEM NEAA (Thermo Fisher #11140-050), 1% GlutaMax (Thermo Fisher #35050-061), and 1% Penicillin Streptomycin (Thermo Fisher #15140-122). A-172 cells were incubated at 37° C., 5% CO2 for 24 h and then starved for 24 h in serum-free medium. Test compounds were serially diluted to produce an 8-point dose curve in fresh serum-free medium to a final concentration of 0.3% DMSO (vehicle) and added to the cells and incubated for 1 h. Cells were then stimulated with 1 μg/mL recombinant human Gas6 (R&D Systems #885-GSB-500) for 15 min, washed with cold PBS, and immediately lysed with 150 μL of cold IX lysis buffer [20 mM Tris, 137 mM sodium chloride, 2 mM EDTA, 10% glycerol, 1% NP-40 alternative, 1 mM activated sodium orthovanadate, 1 mM PefaBloc SC (Sigma-Aldrich #11429868001), protease/phosphatase inhibitor tablet (Thermo Fisher #A32959)]. Lysates were collected and 100 μL/well added into the human phospho-AXL Duo Set IC ELISA (R&D Systems #DYC2228-2). Assay was performed according to manufacturer's instructions and sample phospho-AXL concentrations were extrapolated using human phospho-AXL control (R&D Systems #841645) as a standard. Positive control wells (100% activity) contained Gas6-stimulated, DMSO-treated cell lysates. Negative control wells (0% activity) contained Gas6-stimulated, reference inhibitor-treated cell lysates. IC50 values were calculated by nonlinear regression analysis using a 4-parameter logistic curve fit in ActivityBase XL (IDBS).

KDR = KDR (Homo sapiens (Human), UniProt P35968); assay: KDR autophosphorylation ELISA in HUVEC cells; conditions: cellular, VEGF165-stimulated, phospho-KDR ELISA
Experimental: Human umbilical vein endothelial cells or HUVEC (Lonza #C2519A) were seeded at 2×10^4 cells/well onto 96-well plates (Corning #3904), in EGM-2 growth medium (Lonza #CC-3162) containing 1% Penicillin Streptomycin (Thermo Fisher #15140-122). HUVEC cells were incubated at 37° C., 5% CO2 for 24 h and then starved for 24 h in serum-free EBM-2 basal medium (Lonza #CC-3156) containing 1% Penicillin Streptomycin. Test compounds were serially diluted to produce an 8-point dose curve in fresh serum-free medium to a final concentration of 0.3% DMSO (vehicle) and added to the cells and incubated for 1 h. Cells were then stimulated with 100 ng/mL recombinant human VEGF165 (R&D Systems #293-VE-500) for 5 min, washed with cold PBS, and immediately lysed with 130 μL of cold 1× lysis buffer [20 mM Tris, 137 mM sodium chloride, 2 mM EDTA, 10% glycerol, 1% NP-40 alternative, 1 mM activated sodium orthovanadate, 1 mM PefaBloc SC (Sigma-Aldrich #11429868001), protease/phosphatase inhibitor tablet (Thermo Fisher #A32959)]. Lysates were collected and 100 μL/well added into the human phospho-KDR Duo Set IC ELISA (R&D Systems #DYC 1766-2). Assay was performed according to manufacturer's instructions and sample phospho-KDR concentrations were extrapolated using human phospho-KDR control (R&D Systems #841421) as a standard. Positive control wells (100% activity) contained VEGF165-stimulated, DMSO-treated cell lysates. Negative control wells (0% activity) contained non-stimulated cell lysates. IC50 values were calculated by nonlinear regression analysis using a 4-parameter logistic curve fit in ActivityBase XE (IDBS).

Met = Met (Homo sapiens (Human), UniProt P08581); assay: Met autophosphorylation ELISA in PC-3 cells; conditions: cellular, HGF-stimulated, phospho-Met ELISA, read-out: c-Met IC50
Experimental: PC-3 prostate cancer cells (ATCC #CRL-1435) were seeded at 4×10^4 cells/well onto 24-well plates (Greiner #662165), in DMEM (Thermo Fisher #11995-040) containing 10% FBS (Thermo Fisher #26140-079), 1% MEM NEAA (Thermo Fisher #11140-050), 1% GlutaMax (Thermo Fisher #35050-061), and 1% Penicillin Streptomycin (Thermo Fisher #15140-122). PC-3 cells were incubated at 37° C., 5% CO2 for 24 h and then starved for 3 h in serum-free medium. Test compounds were serially diluted to produce an 8-point dose curve in fresh serum-free medium to a final concentration of 0.3% DMSO (vehicle) and added to the cells and incubated for 1 h. Cells were then stimulated with 100 ng/mL recombinant human HGF (R&D Systems #294-HG-250) for 10 min, washed with cold PBS, and immediately lysed with 130 μL of cold IX lysis buffer [20 mM Tris, 137 mM sodium chloride, 2 mM EDTA, 10% glycerol, 1% NP-40 alternative, 1 mM activated sodium orthovanadate, 1 mM PefaBloc SC (Sigma-Aldrich #11429868001), protease/phosphatase inhibitor tablet (Thermo Fisher #A32959)]. Lysates were clarified by centrifugation and 100 μL/well added into the PathScan phospho-Met (panTyr) Sandwich ELISA (Cell Signaling Technology #7333). Assay was performed according to manufacturer's instructions. Positive control wells (100% activity) contained HGF-stimulated, DMSO-treated cell lysates. Negative control wells (0% activity) contained HGF-stimulated, reference inhibitor-treated cell lysates. IC50 values were calculated by nonlinear regression analysis using a 4-parameter logistic curve fit in ActivityBase XL (IDBS).

Chain of KDR (P35968 20-1356): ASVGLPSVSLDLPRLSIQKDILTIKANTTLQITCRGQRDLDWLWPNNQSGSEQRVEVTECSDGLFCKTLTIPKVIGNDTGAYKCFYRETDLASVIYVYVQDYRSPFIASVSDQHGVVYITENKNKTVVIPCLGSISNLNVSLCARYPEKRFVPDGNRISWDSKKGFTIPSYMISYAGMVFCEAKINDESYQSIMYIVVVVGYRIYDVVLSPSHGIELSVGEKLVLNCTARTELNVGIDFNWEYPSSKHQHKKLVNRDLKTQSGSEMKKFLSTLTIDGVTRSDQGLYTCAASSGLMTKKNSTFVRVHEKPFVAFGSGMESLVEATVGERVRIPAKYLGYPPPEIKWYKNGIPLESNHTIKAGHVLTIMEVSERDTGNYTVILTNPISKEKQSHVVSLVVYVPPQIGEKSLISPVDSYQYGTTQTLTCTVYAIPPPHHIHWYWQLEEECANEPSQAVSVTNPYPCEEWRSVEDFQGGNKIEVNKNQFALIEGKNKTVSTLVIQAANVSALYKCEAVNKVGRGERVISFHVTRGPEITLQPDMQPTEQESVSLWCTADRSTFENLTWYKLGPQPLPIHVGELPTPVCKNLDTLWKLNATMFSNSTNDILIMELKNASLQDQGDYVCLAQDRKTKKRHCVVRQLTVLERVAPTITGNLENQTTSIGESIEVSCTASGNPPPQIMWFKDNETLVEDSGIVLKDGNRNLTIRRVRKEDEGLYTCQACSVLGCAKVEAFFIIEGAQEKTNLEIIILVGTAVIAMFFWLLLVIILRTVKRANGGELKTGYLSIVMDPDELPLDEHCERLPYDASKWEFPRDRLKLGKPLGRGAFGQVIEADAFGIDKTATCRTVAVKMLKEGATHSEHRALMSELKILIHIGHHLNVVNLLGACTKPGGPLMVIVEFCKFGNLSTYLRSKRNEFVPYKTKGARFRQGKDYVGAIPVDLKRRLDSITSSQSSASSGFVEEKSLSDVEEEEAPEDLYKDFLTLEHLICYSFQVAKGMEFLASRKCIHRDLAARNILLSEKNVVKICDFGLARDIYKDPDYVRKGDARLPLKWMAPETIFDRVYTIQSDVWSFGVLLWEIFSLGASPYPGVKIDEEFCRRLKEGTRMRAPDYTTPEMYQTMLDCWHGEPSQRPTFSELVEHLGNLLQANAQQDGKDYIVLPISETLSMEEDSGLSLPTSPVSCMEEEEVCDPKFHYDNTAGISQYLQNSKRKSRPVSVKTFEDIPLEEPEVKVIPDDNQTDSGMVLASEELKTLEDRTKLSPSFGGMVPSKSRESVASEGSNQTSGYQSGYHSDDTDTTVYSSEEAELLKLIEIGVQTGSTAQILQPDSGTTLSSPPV
Chain of Met (P08581 25-1390): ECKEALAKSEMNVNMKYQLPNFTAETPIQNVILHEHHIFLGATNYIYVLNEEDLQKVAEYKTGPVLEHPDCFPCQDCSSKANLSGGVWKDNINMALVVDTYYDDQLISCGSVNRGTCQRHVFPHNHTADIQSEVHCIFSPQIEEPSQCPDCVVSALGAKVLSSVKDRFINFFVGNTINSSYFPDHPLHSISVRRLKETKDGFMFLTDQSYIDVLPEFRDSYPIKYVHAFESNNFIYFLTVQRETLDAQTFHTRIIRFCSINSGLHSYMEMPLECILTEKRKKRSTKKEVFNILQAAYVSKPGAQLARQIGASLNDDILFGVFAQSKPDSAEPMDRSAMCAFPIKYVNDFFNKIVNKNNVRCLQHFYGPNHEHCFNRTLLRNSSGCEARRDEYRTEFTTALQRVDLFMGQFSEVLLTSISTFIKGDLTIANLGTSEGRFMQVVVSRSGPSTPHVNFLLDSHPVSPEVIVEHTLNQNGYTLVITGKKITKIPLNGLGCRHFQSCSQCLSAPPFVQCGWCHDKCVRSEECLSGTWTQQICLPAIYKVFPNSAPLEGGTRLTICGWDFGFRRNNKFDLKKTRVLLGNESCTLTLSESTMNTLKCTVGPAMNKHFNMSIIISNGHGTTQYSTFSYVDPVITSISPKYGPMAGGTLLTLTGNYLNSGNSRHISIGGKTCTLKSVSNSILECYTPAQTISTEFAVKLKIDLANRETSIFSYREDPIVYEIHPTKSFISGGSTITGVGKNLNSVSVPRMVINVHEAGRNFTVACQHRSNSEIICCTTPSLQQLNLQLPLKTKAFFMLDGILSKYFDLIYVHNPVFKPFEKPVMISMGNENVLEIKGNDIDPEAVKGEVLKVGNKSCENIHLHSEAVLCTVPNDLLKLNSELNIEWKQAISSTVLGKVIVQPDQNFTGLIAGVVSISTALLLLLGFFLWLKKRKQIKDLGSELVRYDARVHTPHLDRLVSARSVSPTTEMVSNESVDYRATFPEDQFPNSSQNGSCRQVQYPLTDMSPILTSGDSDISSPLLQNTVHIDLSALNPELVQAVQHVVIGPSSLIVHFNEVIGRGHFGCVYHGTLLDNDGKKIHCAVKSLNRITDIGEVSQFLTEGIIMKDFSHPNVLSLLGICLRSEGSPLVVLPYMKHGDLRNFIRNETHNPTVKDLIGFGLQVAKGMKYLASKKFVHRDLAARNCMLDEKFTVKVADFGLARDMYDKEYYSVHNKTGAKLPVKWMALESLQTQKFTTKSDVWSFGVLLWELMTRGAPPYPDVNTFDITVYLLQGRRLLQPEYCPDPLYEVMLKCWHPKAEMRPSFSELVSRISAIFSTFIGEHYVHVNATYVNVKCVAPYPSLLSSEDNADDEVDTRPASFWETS
Chain of AXL (P30530 26-894): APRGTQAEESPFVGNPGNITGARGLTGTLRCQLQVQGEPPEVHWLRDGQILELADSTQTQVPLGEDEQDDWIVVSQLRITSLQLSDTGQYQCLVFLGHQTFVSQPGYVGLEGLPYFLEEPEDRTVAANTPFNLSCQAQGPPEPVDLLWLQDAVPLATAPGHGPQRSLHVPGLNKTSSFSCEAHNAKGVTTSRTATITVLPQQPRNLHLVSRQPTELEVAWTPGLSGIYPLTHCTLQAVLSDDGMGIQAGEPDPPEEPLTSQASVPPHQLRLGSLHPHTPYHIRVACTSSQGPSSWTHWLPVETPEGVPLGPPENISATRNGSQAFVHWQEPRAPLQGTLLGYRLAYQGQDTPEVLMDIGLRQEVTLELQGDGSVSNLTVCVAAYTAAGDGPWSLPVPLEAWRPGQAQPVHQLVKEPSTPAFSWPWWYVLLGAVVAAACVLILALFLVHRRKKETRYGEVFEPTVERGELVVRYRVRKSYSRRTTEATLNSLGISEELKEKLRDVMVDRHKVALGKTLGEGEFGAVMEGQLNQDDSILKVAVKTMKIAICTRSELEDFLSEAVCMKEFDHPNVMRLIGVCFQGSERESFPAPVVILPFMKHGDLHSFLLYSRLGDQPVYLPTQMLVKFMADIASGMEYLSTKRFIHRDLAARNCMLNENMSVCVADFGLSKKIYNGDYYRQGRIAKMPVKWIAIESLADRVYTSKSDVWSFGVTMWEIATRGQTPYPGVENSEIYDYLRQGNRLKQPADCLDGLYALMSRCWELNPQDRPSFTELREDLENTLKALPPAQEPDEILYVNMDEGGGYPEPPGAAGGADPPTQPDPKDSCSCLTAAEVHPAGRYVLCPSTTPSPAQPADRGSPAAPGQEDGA

SMILES | IC50 (AXL) | IC50 (KDR) | IC50 (Met)
COc1cc(NC(=O)C2(C(=O)Nc3ccc(F)cc3)CC2)ccc1Oc1ncnc2cc(OCCCN3CCOCC3)c(OC)nc12 [Compound 74, 1-N-(4-fluorophenyl)-1-N′-[3-methoxy-4-[6-methoxy-7-(3-morpholin-4-ylpropoxy)pyrido[3,2-d]pyrimidin-4-yl]oxyphenyl]cyclopropane-1,1-dicarboxamide] | 100 to 300 nM | 10 to 100 nM | > 300 nM
COc1cc2nccc(Oc3ccc(NC(=O)C4(C(=O)Nc5ccc(F)cc5)CC4)cc3Cl)c2nc1C(N)=O [Compound 169, 1-N′-[4-[(6-carbamoyl-7-methoxy-1,5-naphthyridin-4-yl)oxy]-3-chlorophenyl]-1-N-(4-fluorophenyl)cyclo-propane-1,1-dicarboxamide] | 10 to 100 nM | 10 to 100 nM | 10 to 100 nM
CNC(=O)c1nc2c(Oc3ccc(NC(=O)C4(C(=O)Nc5ccc(F)cc5)CC4)cc3)ccnc2cc1OC [Compound 172, 1-N′-(4-fluorophenyl)-1-N-[4-[[7-methoxy-6-(methyl-carbamoyl)-1,5-naphthyridin-4-yl]oxy]phenyl]cyclo-propane-1,1-dicarboxamide] | 100 to 300 nM | > 300 nM | > 300 nM
COc1cc2nccc(Oc3cc(F)c(NC(=O)C4(C(=O)Nc5ccc(F)cc5)CC4)cc3F)c2nc1OC [Compound 142, 1-N′-[4-[(6,7-dimethoxy-1,5-naphthyridin-4-yl)oxy]-2,5-difluorophenyl]-1-N-(4-fluorophenyl)cyclo-propane-1,1-dicarboxamide] | ≤ 10 nM | ≤ 10 nM | 10 to 100 nM
COc1cnc2c(Oc3cc(F)c(NC(=O)C4(C(=O)Nc5ccc(F)cc5)CC4)cc3F)ccnc2c1 [Compound 176, 1-N′-[2,5-difluoro-4-[(7-methoxy-1,5-naphthyridin-4-yl)oxy]phenyl]-1-N-(4-fluorophenyl)cyclopropane-1,1-dicarboxamide] | ≤ 10 nM | 100 to 300 nM | 10 to 100 nM
O=C(Nc1ccc(F)cc1)C1(C(=O)Nc2ccc(Oc3ccnc4cc5c(nc34)OCCO5)c(F)c2)CC1 [Compound 158, 1-N′-[4-(2,3-dihydro-[1,4]dioxino[2,3-b][1,5]naphthyridin-6-yloxy)-3-fluorophenyl]-1-N-(4-fluorophenyl)cyclo-propane-1,1-dicarboxamide] | > 300 nM | > 300 nM | > 300 nM
CNC(=O)c1nc2c(Oc3ccc(NC(=O)C4(C(=O)Nc5ccc(F)cc5)CC4)cc3F)ccnc2cc1OC [Compound 173, 1-N′-[3-fluoro-4-[[7-methoxy-6-(methylcarbamoyl)-1,5-naphthyridin-4-- yl]oxy]phenyl]-1-N-(4-fluoro-phenyl)cyclopropane-1,1-dicarboxamide] | 100 to 300 nM | 100 to 300 nM | 100 to 300 nM
COc1cc2nccc(Oc3ccc(NC(=O)C4(C(=O)Nc5ccc(F)cc5)CC4)cc3)c2nc1C(=O)N(C)C [Compound 174, 1-N-[4-[[6-(dimethyl-carbamoyl)-7-methoxy-1,5-naphthyridin-4-yl]oxy]phenyl]-1-N′-(4-fluorophenyl)cyclopropane-1,1-dicarboxamide] | > 300 nM | > 300 nM | 100 to 300 nM

The remaining lines, values ahead:

IC50 (AXL) | IC50 (KDR) | IC50 (Met) | SMILES
> 300 nM | > 300 nM | 100 to 300 nM | O=C(Nc1ccc(F)cc1)C1(C(=O)Nc2ccc(Oc3ccnc4cc5c(nc34)OCCO5)c(Cl)c2)CC1 [Compound 159, 1-N′-[3-chloro-4-(2,3-dihydro-[1,4]dioxino[2,3-b][1,5]naphthyridin-6-yloxy)phenyl]-1-N-(4-fluorophenyl)cyclopropane-1,1-dicarboxamide]
100 to 300 nM | 100 to 300 nM | > 300 nM | COc1cc2ncnc(Oc3ccc(NC(=O)C4(C(=O)Nc5ccc(F)cc5)CC4)c(C)c3)c2nc1OC [Compound 33, 1-N′-[4-(6,7-dimethoxypyrido[3,2-d]pyrimidin-4-yl)oxy-2-methylphenyl]-1-N-(4-fluorophenyl)cyclopropane-1,1-dicarboxamide]
≤ 10 nM | ≤ 10 nM | 10 to 100 nM | COc1nc2c(Oc3cc(F)c(NC(=O)C4(C(=O)Nc5ccc(F)cc5)CC4)cc3F)ccnc2cc1OCCN1CCOCC1 [Compound 153, 1-N′-[2,5-difluoro-4-[[6-methoxy-7-(2-morpholin-4-ylethoxy)-1,5-naphthyridin-4-yl]oxy]phenyl]-1-N-(4-fluorophenyl)cyclo-propane-1,1-dicarboxamide]
100 to 300 nM | > 300 nM | > 300 nM | Cn1cc(-c2ccc3ncnc(Oc4ccc(NC(=O)C5(C(=O)Nc6ccc(F)cc6)CC5)cc4)c3c2)cn1 [Compound 126, 1-N′-(4-fluorophenyl)-1-N-[4-[6-(1-methylpyrazol-4-yl)quinazolin-4-yl]oxyphenyl]cyclo-propane-1,1-dicarboxamide]
100 to 300 nM | > 300 nM | > 300 nM | COc1cc2nccc(Oc3ccc(NC(=O)C4(C(=O)Nc5ccc(F)cc5)CC4)cc3)c2nc1C(N)=O [Compound 167, 1-N-[4-[(6-carbamoyl-7-methoxy-1,5-naphthyridin-4-yl)oxy]phenyl]-1-N′-(4-fluorophenyl)cyclopropane-1,1-dicarboxamide]
10 to 100 nM | 100 to 300 nM | 100 to 300 nM | COc1cc2ncnc(Oc3ccc(NC(=O)C4(C(=O)Nc5ccc(F)cc5)CC4)c(Cl)c3)c2nc1OC [Compound 32, 1-N′-[2-chloro-4-(6,7-dimethoxypyrido[3,2-d]pyrimidin-4-yl)oxyphenyl]-1-N-(4-fluorophenyl)cyclo-propane-1,1-dicarboxamide]
> 300 nM | > 300 nM | > 300 nM | COc1cc2nccc(Oc3ccc(NC(=O)C4(C(=O)Nc5ccc(F)cc5)CC4)cc3)c2nc1-c1ccnn1C [Compound 184, 1-N′-(4-fluorophenyl)-1-N-[4-[[7-methoxy-6-(2-methyl-pyrazol-3-yl)-1,5-naphthyridin-4-yl]oxy]phenyl]cyclo-propane-1,1-dicarboxamide]
10 to 100 nM | ≤ 10 nM | 100 to 300 nM | COCCOc1cc2ncnc(Oc3ccc(NC(=O)C4(C(=O)Nc5ccc(F)cc5)CC4)cc3)c2nc1OC [Compound 78, 1-N′-(4-fluorophenyl)-1-N-[4-[6-methoxy-7-(2-methoxyethoxy)pyrido[3,2-d]pyrimidin-4-yl]oxyphenyl]cyclopropane-1,1-dicarboxamide]
